Test results from US10118901B2 (priority 2013, dated 2018).

Tests used:
Assay type in all cases: cell-based, human
A498 = experiment: NCI-60 screen at 10 μM: A498; conditions: Renal Cancer A498; 10 μM single dose; 48 hrs
Experimental: (§1) NL-101 and CY-102 was sent to U.S. National Cancer Institute (NCI) for NCI 60-cell line screening using a single compound dose (10 μM).
(§2) The human tumor cell lines of the cancer screening panel were grown in RPMI 1640 medium containing 5% fetal bovine serum (5% FBS) and 2 mM L-glutamine. For a typical screening experiment, cells were inoculated into 96-well microtiter plates in 100 μL, at plating densities ranging from 5,000 to 40,000 cells/well depending on the doubling time of individual cell lines. After cell inoculation, the microtiter plates were incubated at 37° C., 5% CO2, 95% air, and 100% relative humidity for 24 h prior to addition of experimental compounds. […]
(§3) Following drug addition, the plates were incubated for an additional 48 hrs at 37° C., 5% CO2, 95% air, and 100% relative humidity. […] Bound stain was subsequently solubilized with 10 mM trizma base, and the absorbance was read on an automated plate reader at a wavelength of 515 nm. […]
(§4) Using the seven absorbance measurements [time zero, (Tz), control growth, (C), and test growth in the presence of drug at the 10 μM concentration levels (Ti)], percentage growth was calculated at each of the drug concentrations levels. Percentage growth inhibition was calculated as: [(Ti−Tz)/(C−Tz)]×100 for which Ti>/=Tz or [(Ti−Tz)/Tz]×100 for which Ti<Tz.

UO-31 = experiment: NCI-60 screen at 10 μM: UO-31; conditions: Renal Cancer UO-31; 10 μM single dose; 48 hrs
Experimental: as §1, §2, §3, §4

K-562 = experiment: NCI-60 screen at 10 μM: K-562; conditions: Leukemia K-562; 10 μM single dose; 48 hrs
Experimental: as §1, §2, §3, §4

SK-MEL-2 = experiment: NCI-60 screen at 10 μM: SK-MEL-2; conditions: Melanoma SK-MEL-2; 10 μM single dose; 48 hrs
Experimental: as §1, §2, §3, §4

PC-3 = experiment: NCI-60 screen at 10 μM: PC-3; conditions: Prostate Cancer PC-3; 10 μM single dose; 48 hrs
Experimental: as §1, §2, §3, §4

OVCAR-3 = experiment: NCI-60 screen at 10 μM: OVCAR-3; conditions: Ovarian Cancer OVCAR-3; 10 μM single dose; 48 hrs
Experimental: as §1, §2, §3, §4

MCF7 = experiment: NCI-60 screen at 10 μM: MCF7; conditions: Breast Cancer MCF7; 10 μM single dose; 48 hrs
Experimental: as §1, §2, §3, §4

SF-268 = experiment: NCI-60 screen at 10 μM: SF-268; conditions: CNS Cancer (Glioma) SF-268; 10 μM single dose; 48 hrs
Experimental: as §1, §2, §3, §4

RPMI-8226 = experiment: NCI-60 screen at 10 μM: RPMI-8226; conditions: Leukemia RPMI-8226; 10 μM single dose; 48 hrs
Experimental: as §1, §2, §3, §4

NCI-H23 = experiment: NCI-60 screen at 10 μM: NCI-H23; conditions: NSCLC NCI-H23; 10 μM single dose; 48 hrs
Experimental: as §1, §2, §3, §4

SK-MEL-5 = experiment: NCI-60 screen at 10 μM: SK-MEL-5; conditions: Melanoma SK-MEL-5; 10 μM single dose; 48 hrs
Experimental: as §1, §2, §3, §4

SNB-19 = experiment: NCI-60 screen at 10 μM: SNB-19; conditions: CNS Cancer (Glioma) SNB-19; 10 μM single dose; 48 hrs
Experimental: as §1, §2, §3, §4

DU-145 = experiment: NCI-60 screen at 10 μM: DU-145; conditions: Prostate Cancer DU-145; 10 μM single dose; 48 hrs
Experimental: as §1, §2, §3, §4

TK-10 = experiment: NCI-60 screen at 10 μM: TK-10; conditions: Renal Cancer TK-10; 10 μM single dose; 48 hrs
Experimental: as §1, §2, §3, §4

HOP-62 = experiment: NCI-60 screen at 10 μM: HOP-62; conditions: NSCLC HOP-62; 10 μM single dose; 48 hrs
Experimental: as §1, §2, §3, §4

MDA-MB-468 = experiment: NCI-60 screen at 10 μM: MDA-MB-468; conditions: Breast Cancer MDA-MB-468; 10 μM single dose; 48 hrs
Experimental: as §1, §2, §3, §4

SF-295 = experiment: NCI-60 screen at 10 μM: SF-295; conditions: CNS Cancer (Glioma) SF-295; 10 μM single dose; 48 hrs
Experimental: as §1, §2, §3, §4

OVCAR-8 = experiment: NCI-60 screen at 10 μM: OVCAR-8; conditions: Ovarian Cancer OVCAR-8; 10 μM single dose; 48 hrs
Experimental: as §1, §2, §3, §4

SNB-75 = experiment: NCI-60 screen at 10 μM: SNB-75; conditions: CNS Cancer (Glioma) SNB-75; 10 μM single dose; 48 hrs
Experimental: as §1, §2, §3, §4

HCT-15 = experiment: NCI-60 screen at 10 μM: HCT-15; conditions: Colon Cancer HCT-15; 10 μM single dose; 48 hrs
Experimental: as §1, §2, §3, §4

M14 = experiment: NCI-60 screen at 10 μM: M14; conditions: Melanoma M14; 10 μM single dose; 48 hrs
Experimental: as §1, §2, §3, §4

NCI-H322M = experiment: NCI-60 screen at 10 μM: NCI-H322M; conditions: NSCLC NCI-H322M; 10 μM single dose; 48 hrs
Experimental: as §1, §2, §3, §4

UACC-62 = experiment: NCI-60 screen at 10 μM: UACC-62; conditions: Melanoma UACC-62; 10 μM single dose; 48 hrs
Experimental: as §1, §2, §3, §4

COLO 205 = experiment: NCI-60 screen at 10 μM: COLO 205; conditions: Colon Cancer COLO 205; 10 μM single dose; 48 hrs
Experimental: as §1, §2, §3, §4

Row | SMILES | Growth % (A498) [%] | Growth % (UO-31) [%] | Growth % (K-562) [%] | Growth % (SK-MEL-2) [%] | Growth % (PC-3) [%] | Growth % (OVCAR-3) [%] | Growth % (MCF7) [%] | Growth % (SF-268) [%] | Growth % (RPMI-8226) [%] | Growth % (NCI-H23) [%] | Growth % (SK-MEL-5) [%] | Growth % (SNB-19) [%] | Growth % (DU-145) [%] | Growth % (TK-10) [%] | Growth % (HOP-62) [%] | Growth % (MDA-MB-468) [%] | Growth % (SF-295) [%] | Growth % (OVCAR-8) [%] | Growth % (SNB-75) [%] | Growth % (HCT-15) [%] | further results
1 | Cn1c(CCNCc2ccc(/C=C/C(=O)NO)cc2)nc2cc(N(CCCl)CCCl)ccc21 [CY-102] | −81.56 | −9.19 | 1.07 | −21.36 | −1.86 | −55.02 | −15.28 | −31.46 | 2.28 | −6.76 | −79.31 | −10.81 | −16.06 | −28.81 | −30.02 | −21.52 | −53.87 | −26.88 | −48.45 | 9.96 | Growth % (M14): −76.75%; Growth % (NCI-H322M): −15.30%; Growth % (UACC-62): −69.24%; Growth % (COLO 205): −81.34%
2 | Cn1c(CCCCCCC(=O)NO)nc2cc(N(CCCl)CCCl)ccc21 [NL-101] | 49.70 | 63.69 | 31.63 | 37.31 | 51.40 | 50.40 | 37.24 | 10.27 | 49.23 | 30.14 | −6.55 | 55.62 | 18.47 | 48.48 | 13.56 | −34.68 | 43.95 | 32.65 | 19.79 | 76.48 | Growth % (M14): 39.93%; Growth % (NCI-H322M): 75.30%; Growth % (UACC-62): 12.99%; Growth % (COLO 205): 54.36%
